Publication PMC12281424, “A Rac-specific competitive inhibitor of guanine nucleotide binding reduces metastasis in triple-negative breast cancer” (Cell Reports Medicine, 2025)

Key:
[1] = test system: AKT phosphorylation in MDA-MB-468 Luc cells; assay: Immunoblotting; assay type: cell-based; details: 10^-5 M, 1 h
Experimental: (§1) Figure 5 A41 decreases growth and invasiveness of TNBC cells in vitro (A) Representative images of RAC-GTP levels (red) in MDA-MB-468 Luc cells in the absence (CTL) and presence of EHT1864, NSC23766, or A41 (1 h at 10 μM) (left). Luciferase (Luc, green) was used to detect the cells. RAC-GTP mean fluorescence intensity was quantified inside the cell area (right) (n = 31–37 cells from 3 independent experiments; ∗p < 0.05, ∗∗∗p < 0.001) (scale bars: 10 μm). […] (C) Quantification of colony number of indicated cancer cell lines in the presence of A41 (10 μM) expressed as the percentage of control in the absence of A41. Results shown are representative of N > 3 independent experiments. (D) Immunoblot analysis and corresponding quantification of AKT and P44/42 expression and phosphorylation (pAKT, p44/42) in MDA-MB-468 Luc cells in the absence (−) and presence of NSC23766 or A41 (1 h at 10^−5 M). […] (E) 3D invasion assay of MDA-MB-468 Luc and cancer-associated fibroblasts (CAFs) and corresponding quantification (scale bars: 200 μm). […]
(§2) After indicated treatments, MDA-MB-468Luc cells were incubated on ice with lysis buffer supplemented with proteases and phosphatases inhibitor cocktails (Sigma Aldrich, Saint Quentin Fallavier, France) and sodium orthovanadate. […] Protein band intensities were quantified using ImageJ Software (NIH software, Bethesda, Md).

[2] = test system: p44/42 phosphorylation in MDA-MB-468 Luc cells; assay: Immunoblotting; assay type: cell-based; details: 10^-5 M, 1 h
Experimental: as §1, §2

Adrenergic α1D = Adrenergic α1D (Homo sapiens, UniProt P25100); assay: Safety screen; assay type: binding
Experimental: (§3) Blood cell counts, kinase profiler, safety screen, bacterial cytotoxicity, Ames, micronucleus assays were performed by the company Eurofins (France).

[3] = test system: Calcium Channel L-Type, Benzothiazepine; assay: Safety screen; assay type: binding, rat
[4] = test system: Calcium Channel L-Type, Phenylalkylamine; assay: Safety screen; assay type: binding, rat
Chemokine CCR1 = Chemokine CCR1 (Homo sapiens, UniProt P32246); assay: Safety screen; assay type: binding
Experimental: as §3

Chemokine CXCR2 (IL-8RB) = Chemokine CXCR2 (IL-8RB) (Homo sapiens, UniProt P25025); assay: Safety screen; assay type: binding
Experimental: as §3

Sodium Channel, Site 2 = assay: Safety screen; assay type: binding, rat
Experimental: as §3

[5] = target: Transporter, Serotonin (5- Hydroxytryptamine) (SERT) (Homo sapiens, UniProt P31645); assay: Safety screen; assay type: binding
Experimental: as §3

Arg(m) = Arg(m) (Mus musculus, UniProt Q4JIM5); assay: Kinase Profiler; assay type: biochemical
Experimental: (§4) Blood cell counts, kinase profiler, safety screen, bacterial cytotoxicity, Ames, micronucleus assays were performed by the company Eurofins (France). The kinase profiler was performed by the company Eurofins (Discovery, Panlab and Cerep).

CK1ε(h) = CK1ε(h) (Homo sapiens, UniProt P49674); assay: Kinase Profiler; assay type: biochemical
Experimental: as §4

CLK1(h) = CLK1(h) (Homo sapiens, UniProt P49759); assay: Kinase Profiler; assay type: biochemical
Experimental: (§5) The kinase profiler was performed by the company Eurofins (Discovery, Panlab and Cerep).

EphA3(h) = EphA3(h) (Homo sapiens, UniProt P29320); assay: Kinase Profiler; assay type: biochemical
Experimental: as §4

FGFR2(h) = FGFR2(h) (Homo sapiens, UniProt P21802); assay: Kinase Profiler; assay type: biochemical
Experimental: as §5

Fms(Y969C)(h) = Fms(Y969C)(h) (Homo sapiens, UniProt P07333, Y969C); assay: Kinase Profiler; assay type: biochemical
Experimental: as §5

GRK1(h) = GRK1(h) (Homo sapiens, UniProt Q15835); assay: Kinase Profiler; assay type: biochemical
Experimental: as §4

GRK2(h) = GRK2(h) (Homo sapiens, UniProt P25098); assay: Kinase Profiler; assay type: biochemical
Experimental: as §4

LATS1(h) = LATS1(h) (Homo sapiens, UniProt O95835); assay: Kinase Profiler; assay type: biochemical
Experimental: as §5

Mer(h) = Mer(h) (Homo sapiens, UniProt Q12866); assay: Kinase Profiler; assay type: biochemical
Experimental: as §5

MOK(h) = MOK(h) (Homo sapiens, UniProt Q9UQ07); assay: Kinase Profiler; assay type: biochemical
Experimental: as §5

mTOR/FKBP12(h) = mTOR/FKBP12(h) (Homo sapiens, UniProt P42345); assay: Kinase Profiler; assay type: biochemical
Experimental: as §5

MYO3B(h) = MYO3B(h) (Homo sapiens, UniProt Q8WXR4); assay: Kinase Profiler; assay type: biochemical
Experimental: as §5

PASK(h) = PASK(h) (Homo sapiens, UniProt Q96RG2); assay: Kinase Profiler; assay type: biochemical
Experimental: as §5

PDGFRβ(h) = PDGFRβ(h) (Homo sapiens, UniProt P09619); assay: Kinase Profiler; assay type: biochemical
Experimental: as §5

Plk3(h) = Plk3(h) (Homo sapiens, UniProt Q9H4B4); assay: Kinase Profiler; assay type: biochemical
Experimental: as §4

SRMS(h) = SRMS(h) (Homo sapiens, UniProt Q9H3Y6); assay: Kinase Profiler; assay type: biochemical
Experimental: as §5

TAK1(h) = TAK1(h) (Homo sapiens, UniProt O43318); assay: Kinase Profiler; assay type: biochemical
Experimental: as §4

TSSK2(h) = TSSK2(h) (Homo sapiens, UniProt Q96PF2); assay: Kinase Profiler; assay type: biochemical
Experimental: as §5

PI3K (p110d/p85a)(m) = PI3K (p110d/p85a)(m) (Mus musculus, UniProt O35904); assay: Kinase Profiler; assay type: biochemical
Sequence of PI3K (p110d/p85a)(m) (O35904 whole entry): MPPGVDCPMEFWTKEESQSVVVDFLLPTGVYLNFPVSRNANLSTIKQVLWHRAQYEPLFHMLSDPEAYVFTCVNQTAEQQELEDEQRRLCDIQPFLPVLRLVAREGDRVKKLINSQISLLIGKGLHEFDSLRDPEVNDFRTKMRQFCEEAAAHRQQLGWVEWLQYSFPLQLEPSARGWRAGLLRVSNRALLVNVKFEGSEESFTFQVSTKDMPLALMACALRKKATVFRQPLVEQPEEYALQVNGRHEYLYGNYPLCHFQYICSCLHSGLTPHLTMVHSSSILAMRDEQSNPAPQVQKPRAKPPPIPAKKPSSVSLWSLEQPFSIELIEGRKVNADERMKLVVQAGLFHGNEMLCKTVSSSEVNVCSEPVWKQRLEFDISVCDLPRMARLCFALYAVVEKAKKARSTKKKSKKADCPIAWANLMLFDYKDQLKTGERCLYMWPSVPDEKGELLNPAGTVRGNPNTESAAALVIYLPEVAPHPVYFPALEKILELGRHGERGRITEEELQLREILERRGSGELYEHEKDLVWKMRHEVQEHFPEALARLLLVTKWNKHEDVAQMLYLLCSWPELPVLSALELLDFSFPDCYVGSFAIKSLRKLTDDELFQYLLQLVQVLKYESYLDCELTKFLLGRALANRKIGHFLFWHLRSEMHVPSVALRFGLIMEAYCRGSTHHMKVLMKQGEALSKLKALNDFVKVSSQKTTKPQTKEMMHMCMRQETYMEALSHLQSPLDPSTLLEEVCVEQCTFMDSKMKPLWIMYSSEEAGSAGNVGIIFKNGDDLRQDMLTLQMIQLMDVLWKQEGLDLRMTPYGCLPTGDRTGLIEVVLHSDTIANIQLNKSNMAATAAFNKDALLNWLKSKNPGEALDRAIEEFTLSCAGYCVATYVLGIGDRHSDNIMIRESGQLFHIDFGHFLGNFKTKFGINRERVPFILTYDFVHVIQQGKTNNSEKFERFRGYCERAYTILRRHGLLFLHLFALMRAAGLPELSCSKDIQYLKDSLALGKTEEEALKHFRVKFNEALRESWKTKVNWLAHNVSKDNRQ
Sequence of PI3K (p110d/p85a)(m) (P26450 2-724 partner): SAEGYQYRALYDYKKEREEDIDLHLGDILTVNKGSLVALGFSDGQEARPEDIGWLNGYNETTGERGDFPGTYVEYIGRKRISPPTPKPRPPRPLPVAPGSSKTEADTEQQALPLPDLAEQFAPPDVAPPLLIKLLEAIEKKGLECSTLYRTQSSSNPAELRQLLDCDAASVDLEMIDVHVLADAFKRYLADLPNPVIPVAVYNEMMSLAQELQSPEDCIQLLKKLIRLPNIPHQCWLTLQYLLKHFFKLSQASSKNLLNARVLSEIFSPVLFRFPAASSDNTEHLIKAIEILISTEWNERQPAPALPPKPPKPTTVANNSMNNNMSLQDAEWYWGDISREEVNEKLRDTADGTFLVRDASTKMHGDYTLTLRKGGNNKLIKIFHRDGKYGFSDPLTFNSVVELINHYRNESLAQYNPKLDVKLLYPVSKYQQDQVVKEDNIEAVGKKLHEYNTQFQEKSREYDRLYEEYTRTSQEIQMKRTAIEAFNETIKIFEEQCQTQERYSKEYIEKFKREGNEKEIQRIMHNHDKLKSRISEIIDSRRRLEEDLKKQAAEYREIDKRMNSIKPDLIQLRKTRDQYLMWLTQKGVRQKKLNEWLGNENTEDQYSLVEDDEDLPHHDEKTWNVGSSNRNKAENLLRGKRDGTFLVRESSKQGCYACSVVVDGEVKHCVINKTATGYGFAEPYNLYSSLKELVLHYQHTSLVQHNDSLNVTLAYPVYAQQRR
Experimental: as §4

Sequence of TAK1(h) (O43318 1-303 limits assumed): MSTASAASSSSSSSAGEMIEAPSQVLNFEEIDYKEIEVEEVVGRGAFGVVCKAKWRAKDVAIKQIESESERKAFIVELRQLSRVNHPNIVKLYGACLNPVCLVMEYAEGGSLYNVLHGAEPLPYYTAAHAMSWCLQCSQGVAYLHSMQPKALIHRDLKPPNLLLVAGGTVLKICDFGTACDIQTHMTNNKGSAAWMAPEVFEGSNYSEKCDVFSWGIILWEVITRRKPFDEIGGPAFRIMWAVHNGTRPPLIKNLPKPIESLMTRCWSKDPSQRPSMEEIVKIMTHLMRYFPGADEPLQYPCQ
Sequence of Chemokine CXCR2 (IL-8RB) (P25025 whole entry): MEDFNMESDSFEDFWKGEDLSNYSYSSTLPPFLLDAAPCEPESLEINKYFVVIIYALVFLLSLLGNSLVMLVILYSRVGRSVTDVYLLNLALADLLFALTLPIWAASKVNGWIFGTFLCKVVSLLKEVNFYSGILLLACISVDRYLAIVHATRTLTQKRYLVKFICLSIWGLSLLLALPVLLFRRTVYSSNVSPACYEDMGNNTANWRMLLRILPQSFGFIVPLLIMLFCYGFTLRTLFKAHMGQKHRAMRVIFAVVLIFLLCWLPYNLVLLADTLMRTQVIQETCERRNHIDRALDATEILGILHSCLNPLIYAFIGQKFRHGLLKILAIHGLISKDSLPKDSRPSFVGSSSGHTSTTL
Sequence of MYO3B(h) (Q8WXR4 whole entry): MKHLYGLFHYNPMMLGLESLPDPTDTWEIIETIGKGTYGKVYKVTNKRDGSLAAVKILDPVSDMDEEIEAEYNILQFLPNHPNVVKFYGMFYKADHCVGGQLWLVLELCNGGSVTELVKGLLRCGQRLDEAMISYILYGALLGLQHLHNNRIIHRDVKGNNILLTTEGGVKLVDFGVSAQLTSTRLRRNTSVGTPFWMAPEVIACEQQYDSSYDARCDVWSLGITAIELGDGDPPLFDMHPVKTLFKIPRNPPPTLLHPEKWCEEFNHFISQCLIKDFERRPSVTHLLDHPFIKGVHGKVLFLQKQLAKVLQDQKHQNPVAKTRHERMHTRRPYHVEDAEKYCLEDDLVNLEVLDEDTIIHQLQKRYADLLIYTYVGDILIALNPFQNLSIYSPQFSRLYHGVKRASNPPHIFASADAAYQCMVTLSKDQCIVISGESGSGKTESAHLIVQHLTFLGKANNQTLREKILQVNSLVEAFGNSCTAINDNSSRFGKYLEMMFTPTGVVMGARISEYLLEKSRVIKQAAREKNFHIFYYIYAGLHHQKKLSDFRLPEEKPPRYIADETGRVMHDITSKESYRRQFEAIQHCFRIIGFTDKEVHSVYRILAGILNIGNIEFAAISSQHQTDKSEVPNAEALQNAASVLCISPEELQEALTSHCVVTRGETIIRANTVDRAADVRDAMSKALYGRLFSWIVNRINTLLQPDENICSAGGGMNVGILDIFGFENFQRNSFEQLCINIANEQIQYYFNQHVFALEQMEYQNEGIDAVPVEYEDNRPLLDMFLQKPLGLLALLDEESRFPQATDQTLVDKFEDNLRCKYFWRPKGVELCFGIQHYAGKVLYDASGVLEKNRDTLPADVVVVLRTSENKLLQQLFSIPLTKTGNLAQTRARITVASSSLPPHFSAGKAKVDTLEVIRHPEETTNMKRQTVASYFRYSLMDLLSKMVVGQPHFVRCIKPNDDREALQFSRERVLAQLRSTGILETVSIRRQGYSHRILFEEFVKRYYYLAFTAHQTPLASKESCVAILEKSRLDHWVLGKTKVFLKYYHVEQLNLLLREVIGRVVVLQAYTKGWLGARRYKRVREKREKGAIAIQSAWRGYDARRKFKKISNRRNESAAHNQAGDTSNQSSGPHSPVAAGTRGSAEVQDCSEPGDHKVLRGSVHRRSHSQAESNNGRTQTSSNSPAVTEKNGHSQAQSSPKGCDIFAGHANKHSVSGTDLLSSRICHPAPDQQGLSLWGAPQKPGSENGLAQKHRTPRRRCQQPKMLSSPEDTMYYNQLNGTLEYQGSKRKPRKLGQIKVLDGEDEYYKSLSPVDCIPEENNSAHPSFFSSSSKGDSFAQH
Sequence of SRMS(h) (Q9H3Y6 whole entry): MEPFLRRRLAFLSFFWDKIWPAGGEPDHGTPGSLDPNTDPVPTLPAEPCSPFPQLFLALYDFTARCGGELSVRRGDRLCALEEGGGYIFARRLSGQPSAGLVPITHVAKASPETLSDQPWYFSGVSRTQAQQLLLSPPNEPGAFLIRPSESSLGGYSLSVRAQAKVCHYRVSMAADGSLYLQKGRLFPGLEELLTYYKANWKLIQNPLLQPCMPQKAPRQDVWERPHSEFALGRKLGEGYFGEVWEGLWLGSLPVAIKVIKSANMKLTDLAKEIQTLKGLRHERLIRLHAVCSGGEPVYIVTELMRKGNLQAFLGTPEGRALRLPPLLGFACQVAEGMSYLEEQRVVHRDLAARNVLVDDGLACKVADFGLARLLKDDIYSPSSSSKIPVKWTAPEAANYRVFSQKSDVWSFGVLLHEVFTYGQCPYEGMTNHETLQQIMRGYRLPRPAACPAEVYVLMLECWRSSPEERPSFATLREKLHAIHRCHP
Sequence of Transporter, Serotonin (5- Hydroxytryptamine) (SERT) (P31645 whole entry): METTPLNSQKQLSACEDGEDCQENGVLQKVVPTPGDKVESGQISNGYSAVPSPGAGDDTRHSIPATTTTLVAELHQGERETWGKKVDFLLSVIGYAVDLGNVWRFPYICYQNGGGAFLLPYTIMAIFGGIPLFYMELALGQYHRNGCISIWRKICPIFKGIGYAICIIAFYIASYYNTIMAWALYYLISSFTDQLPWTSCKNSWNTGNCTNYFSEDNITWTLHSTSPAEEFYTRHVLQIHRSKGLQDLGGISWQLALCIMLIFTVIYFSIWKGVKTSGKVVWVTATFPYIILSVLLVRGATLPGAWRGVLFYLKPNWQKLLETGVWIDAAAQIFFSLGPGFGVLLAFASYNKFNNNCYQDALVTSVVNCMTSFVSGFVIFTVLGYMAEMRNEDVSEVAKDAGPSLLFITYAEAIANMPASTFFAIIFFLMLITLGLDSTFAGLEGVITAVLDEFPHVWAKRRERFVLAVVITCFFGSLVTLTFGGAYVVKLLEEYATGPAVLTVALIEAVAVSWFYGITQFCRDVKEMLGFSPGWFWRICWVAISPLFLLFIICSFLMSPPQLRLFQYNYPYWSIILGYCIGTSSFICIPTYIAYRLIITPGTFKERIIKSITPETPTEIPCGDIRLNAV

Structure (SMILES): COc1ccc(OC)c(NS(=O)(=O)c2ccc(NC(=O)CCSc3ccc(C)cc3)cc2)c1 [Compound A41]
- hyperactivation of AKT [1]: reduced
- p44/42 activation [2]: unchanged
- % inh. (Adrenergic α1D): 21%
- % inh. [3]: 46%
- % inh. [4]: 52%
- % inh. (Chemokine CCR1): 2%
- % inh. (Chemokine CXCR2 (IL-8RB)): 1%
- % inh. (Sodium Channel, Site 2): 57%
- % inh. [5]: -3%
- Activity(%) (Arg(m)): 109%
- Activity(%) (CK1ε(h)): 108%
- Activity(%) (CLK1(h)): 81%
- Activity(%) (EphA3(h)): 139%
- Activity(%) (FGFR2(h)): 89%
- Activity(%) (Fms(Y969C)(h)): 107%
- Activity(%) (GRK1(h)): 103%
- Activity(%) (GRK2(h)): 96%
- Activity(%) (LATS1(h)): 98%
- Activity(%) (Mer(h)): 90%
- Activity(%) (MOK(h)): 90%
- Activity(%) (mTOR/FKBP12(h)): 104%
- Activity(%) (MYO3B(h)): 106%
- Activity(%) (PASK(h)): 97%
- Activity(%) (PDGFRβ(h)): 82%
- Activity(%) (Plk3(h)): 115%
- Activity(%) (SRMS(h)): 102%
- Activity(%) (TAK1(h)): 107%
- Activity(%) (TSSK2(h)): 111%
- Activity(%) (PI3K (p110d/p85a)(m)): 100%
